17 compounds from PMC12135072 (RSC Medicinal Chemistry, 2025) can be followed below.

For experiment [1], the system named is MCF7 (ATCC – HTB-22, breast carcinoma). The experiment can be described thus: MTT cell viability assay, MCF7. In kind it is cell-based. To be noted: Homo sapiens, MCF7, read-out: IC50 MCF7.
Experiment [2] has as its system MRC5 (ATCC – CCL-171, human diploid fibroblast cell line). The experiment can be described thus: cells. To be noted: MRC5, read-out: IC50 MRC5.
In experiment [3] the test system is A549 (ATCC – CCL-185, lung carcinoma). In words: MTT cell viability assay, A549. The experiment is classed as cell-based. To be noted: Homo sapiens, A549, read-out: IC50 A549. Background: Formazan colour is commonly taken as a measure of viable cells.
Experiment [4] deals with HCT116 (ATCC – CCL-247, colon carcinoma). In words: MTT cell viability assay, HCT116. Particulars: Homo sapiens, HCT-116, read-out: IC50 HCT116. In kind it is cell-based.

The structures appear in SMILES notation.

A word on the IC50: it is the midpoint of a concentration-inhibition curve. Turning to `Cc1ccn(-c2ccc(C3C(C#N)=C(N)OC4=C3C(=O)CCC4)cc2)n1` (centres unmarked) [Compound 7a, 2-amino-4-(4-(3-methyl-1H-pyrazol-1-yl)phenyl)-5-oxo-5,6,7,8-tetrahydro-4H-chromene-3-carbonitrile], the IC50 was 190 ± 5.34 µM in experiment [1], more than 200 µM in experiment [2], 89.7 ± 4.38 µM in experiment [3] and 139 ± 3.89 µM in experiment [4].

As for `Cc1cnn(-c2ccc(C3C(C#N)=C(N)OC4=C3C(=O)CCC4)cc2)c1` (centres unmarked) [Compound 7b, 2-Amino-4-(4-(4-methyl-1H-pyrazol-1-yl)phenyl)-5-oxo-5,6,7,8-tetrahydro-4H-chromene-3-carbonitrile], the IC50 was 24 ± 2.27 µM in experiment [1], more than 200 µM in experiment [2], 147 ± 3.61 µM in experiment [3] and 163 ± 3.14 µM in experiment [4].

Consider `Cc1cc(C)n(-c2ccc(C3C(C#N)=C(N)OC4=C3C(=O)CCC4)cc2)n1` (centres unmarked) [Compound 7c, 2-Amino-4-(4-(3,5-dimethyl-1H-pyrazol-1-yl)phenyl)-5-oxo-5,6,7,8-tetrahydro-4H-chromene-3-carbonitrile], for which the half-maximal inhibitory concentration (IC50) in experiment [1] is 22.9 ± 1.31 µM; in experiment [2], more than 200 µM; in experiment [3], more than 200 µM; in experiment [4], 194 ± 6.01 µM.

On to `N#CC1=C(N)OC2=C(C(=O)CCC2)C1c1ccc(-n2cc(Br)cn2)cc1` (centres unmarked) [Compound 7d, 2-Amino-4-(4-(4-bromo-1H-pyrazol-1-yl)phenyl)-5-oxo-5,6,7,8-tetrahydro-4H-chromene-3-carbonitrile], for which the IC50 in experiment [1] is 56.1 ± 3.79 µM; in experiment [2], more than 200 µM; in experiment [3], 23.6 ± 1.29 µM; in experiment [4], 45.7 ± 0.67 µM.

For `N#CC1=C(N)OC2=C(C(=O)CCC2)C1c1ccc(-n2ccc(C(F)(F)F)n2)cc1` (centres unmarked) [Compound 7e, 2-Amino-5-oxo-4-(4-(3-(trifluoromethyl)-1H-pyrazol-1-yl)phenyl)-5,6,7,8-tetrahydro-4H-chromene-3-carbonitrile], the 50% inhibitory concentration (IC50) was 15 ± 0.78 µM in experiment [1], more than 200 µM in experiment [2], 18 ± 0.45 µM in experiment [3] and 72.2 ± 0.96 µM in experiment [4].

With `Cc1cncn1-c1ccc(C2C(C#N)=C(N)OC3=C2C(=O)CC(C)(C)C3)cc1` (centres unmarked) [Compound 8c, 2-Amino-7,7-dimethyl-4-(4-(5-methyl-1H-imidazol-1-yl)phenyl)-5-oxo-5,6,7,8-tetrahydro-4H-chromene-3-carbonitrile], the IC50 in experiment [1] was 83.2 ± 2.11 µM; in experiment [2], more than 200 µM; in experiment [3] it was 133 ± 5.81 µM; in experiment [4], 162 ± 6.91 µM.

Turning to `CCc1nccn1-c1ccc(C2C(C#N)=C(N)OC3=C2C(=O)CC(C)(C)C3)cc1` (centres unmarked) [Compound 8d, 2-Amino-4-(4-(2-ethyl-1H-imidazol-1-yl)phenyl)-7,7-dimethyl-5-oxo-5,6,7,8-tetrahydro-4H-chromene-3-carbonitrile], the IC50 was more than 200 µM in experiment [1], more than 200 µM in experiment [2], 19.8 ± 0.94 µM in experiment [3] and 137 ± 5.82 µM in experiment [4].

With `CC1(C)CC(=O)C2=C(C1)OC(N)=C(C#N)C2c1ccc(-n2cnc(Br)c2)cc1` (centres unmarked) [Compound 8e, 2-Amino-4-(4-(4-bromo-1H-imidazol-1-yl)phenyl)-7,7-dimethyl-5-oxo-5,6,7,8-tetrahydro-4H-chromene-3-carbonitrile], the IC50 in experiment [1] was 74.87 ± 0.17 µM; in experiment [2], more than 200 µM; in experiment [3] it was 30.6 ± 1.85 µM; in experiment [4], 77.6 ± 1.58 µM.

With `N#CC1=C(N)Oc2c(c(=O)oc3ccccc23)C1c1ccc(OCc2cn(-c3ccccc3)nn2)cc1` (centres unmarked) [Compound 15a, 2-Amino-5-oxo-4-(4-((1-phenyl-1H-1,2,3-triazol-4-yl)methoxy)phenyl)-4H,5H-pyrano[3,2-c]chromene-3-carbonitrile], the concentration for half-maximal inhibition (IC50) in experiment [1] is more than 200 µM; in experiment [2] it was 146.5 ± 0.53 µM; in experiment [3], more than 200 µM; in experiment [4] it was more than 200 µM.

As for `N#CC1=C(N)Oc2c(c(=O)oc3ccccc23)C1c1ccc(OCc2cn(-c3ccc(Cl)cc3)nn2)cc1` (centres unmarked) [Compound 15b, 2-Amino-4-(4-((1-(4-chlorophenyl)-1H-1,2,3-triazol-4-yl)methoxy)phenyl)-5-oxo-4H,5H-pyrano[3,2-c]chromene-3-carbonitrile], the IC50 in experiment [1], in experiment [2], in experiment [3] and in experiment [4] was more than 200 µM throughout.

Consider `N#CC1=C(N)Oc2c(c(=O)oc3ccccc23)C1c1ccc(OCc2cn(-c3ccc(Br)cc3)nn2)cc1` (centres unmarked) [Compound 15c, 2-Amino-4-(4-((1-(4-bromophenyl)-1H-1,2,3-triazol-4-yl)methoxy)phenyl)-5-oxo-4H,5H-pyrano[3,2-c]chromene-3-carbonitrile], for which the concentration for half-maximal inhibition (IC50) in experiment [1] was more than 200 µM; in experiment [2], 66.9 ± 1.6 µM; in experiment [3], more than 200 µM; in experiment [4] it was more than 200 µM.

As to `Cc1ccc(-n2cc(COc3ccc(C4C(C#N)=C(N)Oc5c4c(=O)oc4ccccc54)cc3)nn2)cc1` (centres unmarked) [Compound 15d, 2-Amino-5-oxo-4-(4-((1-(p-tolyl)-1H-1,2,3-triazol-4-yl)methoxy)phenyl)-4H,5H-pyrano[3,2-c]chromene-3-carbonitrile], the IC50 in experiment [1], in experiment [2], in experiment [3] and in experiment [4] was more than 200 µM in each case.

On to `COc1ccc(-n2cc(COc3ccc(C4C(C#N)=C(N)Oc5c4c(=O)oc4ccccc54)cc3)nn2)cc1` (centres unmarked) [Compound 15e, 2-Amino-4-(4-((1-(4-methoxyphenyl)-1H-1,2,3-triazol-4-yl)methoxy)phenyl)-5-oxo-4H,5H-pyrano[3,2-c]chromene-3-carbonitrile], for which the half-inhibitory concentration (IC50) in experiment [1], in experiment [2], in experiment [3] and in experiment [4] was more than 200 µM in each case.

As to `N#CC1=C(N)Oc2c(c(=O)oc3ccccc23)C1c1ccc(-n2ccnn2)cc1` (centres unmarked) [Compound 15f, 4-(4-(1H-1,2,3-Triazol-1-yl)phenyl)-2-amino-5-oxo-4H,5H-pyrano[3,2-c]chromene-3-carbonitrile], the IC50 in experiment [1] turned out to be 145 ± 2.75 µM; in experiment [2] it was 156 ± 0.48 µM; in experiment [3] it was 72.9 ± 2.26 µM; in experiment [4], 163 ± 5.45 µM.

On to `N#CC1=C(N)Oc2c(c(=O)oc3ccccc23)C1c1ccc(-n2cnnn2)cc1` (centres unmarked) [Compound 15g, 4-(4-(1H-Tetrazol-1-yl)phenyl)-2-amino-5-oxo-4H,5H-pyrano[3,2-c]chromene-3-carbonitrile], for which the IC50 in experiment [1], in experiment [2], in experiment [3] and in experiment [4] was more than 200 µM each time.

With `Cc1cc2c(c(=O)o1)C(c1ccc(OCc3cn(-c4ccccc4)nn3)cc1)C(C#N)=C(N)O2` (centres unmarked) [Compound 17a, 2-Amino-7-methyl-5-oxo-4-(4-((1-phenyl-1H-1,2,3-triazol-4-yl)methoxy)phenyl)-4H,5H-pyrano[4,3-b]pyran-3-carbonitrile], the IC50 in experiment [1] was more than 200 µM; in experiment [2] it was more than 200 µM; in experiment [3], 80.5 ± 4.68 µM; in experiment [4], more than 200 µM.

With `Cc1cc2c(c(=O)o1)C(c1ccc(OCc3cn(-c4ccc(Cl)cc4)nn3)cc1)C(C#N)=C(N)O2` (centres unmarked) [Compound 17b, 2-Amino-4-(4-((1-(4-chlorophenyl)-1H-1,2,3-triazol-4-yl)methoxy)phenyl)-7-methyl-5-oxo-4H,5H-pyrano[4,3-b]pyran-3-carbonitrile], the IC50 was 36.06 ± 0.31 µM in experiment [1], more than 200 µM in experiment [2], 20.4 ± 1.87 µM in experiment [3] and 47.4 ± 4.13 µM in experiment [4].
